Reference: ChEMBL document CHEMBL1145395, “De novo design of selective antibiotic peptides by incorporation of unnatural amino acids” (J Med Chem, 2007)
≈ marks a conversion by molar mass, not a printed value. Calls of active or inactive are those of the source. The calls are words filed in the database; no cut-off is given here. Non-standard residues stand in square brackets, D forms with d. Residues, ends and D or L forms follow the SMILES beside them. ξ: configuration not given here. Pro(3ξ,4ξ-(CH2)4) = O=C(O)[C@H]1NCC2CCCCC21; Oic = O=C(O)[C@@H]1C[C@@H]2CCCC[C@@H]2N1; Pro(3,4-benzo) = O=C(O)[C@H]1NCc2ccccc21; Tic = O=C(O)[C@@H]1Cc2ccccc2CN1; βAla = NCCC(=O)O

Columns and labels:
Salmonella typhimurium = test: Antibacterial activity against Salmonella Typhimurium ATCC 13311; type: functional; details: Salmonella enterica subsp. enterica serovar Typhimurium
Staphylococcus aureus = test: Antibacterial activity against methicillin/gentamicin/tetracycline resistant Staphylococcus aureus ATCC 33592; type: functional
[1] = Toxicity to mouse RBC assessed as hemolytic activity at 100 uM; type: cell-based, Erythrocyte; details: red blood cells, read-out: Activity

Structure (SMILES) | Activity (Salmonella typhimurium) | MIC (Staphylococcus aureus) [µM] | hemolysis at 100 µM [1] [%] | Activity (Staphylococcus aureus)
CC(C)C[C@H](NC(=O)CNC(=O)[C@H](CCCCN)NC(=O)CN)C(=O)N1Cc2ccccc2C[C@H]1C(=O)N1CC2CCCCC2[C@H]1C(=O)NCC(=O)N[C@@H](CC(C)C)C(=O)N1Cc2ccccc2C[C@H]1C(=O)N1CC2CCCCC2[C@H]1C(=O)NCC(=O)N[C@@H](CCCCN)C(=O)N1Cc2ccccc2C[C@H]1C(=O)N1CC2CCCCC2[C@H]1C(=O)NCC(=O)N[C@@H](CC(C)C)C(=O)N1Cc2ccccc2C[C@H]1C(=O)N1CC2CCCCC2[C@H]1C(=O)NCC(=O)N[C@@H](CCCCN)C(=O)N1Cc2ccccc2C[C@H]1C(=O)N1CC2CCCCC2[C@H]1C(=O)NCC(=O)N[C@@H](CC(C)C)C(=O)N1Cc2ccccc2C[C@H]1C(=O)N1CC2CCCCC2[C@H]1C(=O)NCC(=O)N[C@@H](CCCCN)C(=O)N[C@@H](CCCNC(=N)N)C(N)=O (some centres undefined) (H-GKGL[Tic][Pro(3ξ,4ξ-(CH2)4)]GL[Tic][Pro(3ξ,4ξ-(CH2)4)]GK[Tic][Pro(3ξ,4ξ-(CH2)4)]GL[Tic][Pro(3ξ,4ξ-(CH2)4)]GK[Tic][Pro(3ξ,4ξ-(CH2)4)]GL[Tic][Pro(3ξ,4ξ-(CH2)4)]GKR-NH2) | inactive | 100 (≈ 346 µg/mL) | 100 | 
CC(C)C[C@H](NC(=O)CNC(=O)[C@H](CCCCN)NC(=O)CN)C(=O)N1Cc2ccccc2C[C@H]1C(=O)N1[C@H](C(=O)NCC(=O)N[C@@H](CCCNC(=N)N)C(=O)N2Cc3ccccc3C[C@H]2C(=O)N2[C@H](C(=O)NCC(=O)N[C@@H](Cc3ccccc3)C(=O)N3Cc4ccccc4C[C@H]3C(=O)N3[C@H](C(=O)NCC(=O)N[C@@H](CCCNC(=N)N)C(=O)N4Cc5ccccc5C[C@H]4C(=O)N4[C@H](C(=O)NCC(=O)N[C@@H](Cc5ccccc5)C(=O)N5Cc6ccccc6C[C@H]5C(=O)N5[C@H](C(=O)NCC(=O)N[C@@H](CCCNC(=N)N)C(=O)N6Cc7ccccc7C[C@H]6C(=O)N6[C@H](C(=O)NCC(=O)N[C@@H](CCCCN)C(=O)N[C@@H](CCCNC(=N)N)C(N)=O)C[C@@H]7CCCC[C@@H]76)C[C@@H]6CCCC[C@@H]65)C[C@@H]5CCCC[C@@H]54)C[C@@H]4CCCC[C@@H]43)C[C@@H]3CCCC[C@@H]32)C[C@@H]2CCCC[C@@H]21 (H-GKGL[Tic][Oic]GR[Tic][Oic]GF[Tic][Oic]GR[Tic][Oic]GF[Tic][Oic]GR[Tic][Oic]GKR-NH2) |  |  | 100 | 
CSCC[C@H](NC(=O)[C@H](CC(C)C)NC(=O)[C@H](CCC(=O)O)NC(=O)[C@@H]1C2CCCCC2CN1C(=O)[C@@H]1Cc2ccccc2CN1C(=O)[C@H](CCCCN)NC(=O)CNC(=O)[C@H](CC(C)C)NC(=O)[C@H](CCCCN)NC(=O)CNC(=O)[C@@H]1C2CCCCC2CN1C(=O)[C@@H]1Cc2ccccc2CN1C(=O)[C@H](CO)NC(=O)[C@H](CC(N)=O)NC(=O)[C@H](CCSC)NC(=O)[C@H](CC(C)C)NC(=O)[C@@H](N)CCC(=O)O)C(=O)N[C@@H](CO)C(N)=O (some centres undefined) (H-ELMNS[Tic][Pro(3ξ,4ξ-(CH2)4)]GKLGK[Tic][Pro(3ξ,4ξ-(CH2)4)]ELMS-NH2) | inactive |  | 23 | inactive
CSCC[C@H](NC(=O)[C@H](CC(C)C)NC(=O)[C@H](CCC(=O)O)NC(=O)[C@@H]1C[C@@H]2CCCC[C@@H]2N1C(=O)[C@@H]1Cc2ccccc2CN1C(=O)[C@H](Cc1ccccc1)NC(=O)CNC(=O)[C@@H]1C[C@@H]2CCCC[C@@H]2N1C(=O)[C@@H]1Cc2ccccc2CN1C(=O)[C@H](CCCNC(=N)N)NC(=O)CNC(=O)[C@@H]1C[C@@H]2CCCC[C@@H]2N1C(=O)[C@@H]1Cc2ccccc2CN1C(=O)[C@H](Cc1ccccc1)NC(=O)CNC(=O)[C@@H]1C[C@@H]2CCCC[C@@H]2N1C(=O)[C@@H]1Cc2ccccc2CN1C(=O)[C@H](CCCNC(=N)N)NC(=O)CNC(=O)[C@@H]1C[C@@H]2CCCC[C@@H]2N1C(=O)[C@@H]1Cc2ccccc2CN1C(=O)[C@H](CC(C)C)NC(=O)CNC(=O)[C@H](CCCCN)NC(=O)CN)C(=O)N[C@@H](CC(N)=O)C(=O)N[C@@H](CO)C(N)=O (H-GKGL[Tic][Oic]GR[Tic][Oic]GF[Tic][Oic]GR[Tic][Oic]GF[Tic][Oic]ELMNS-NH2) |  |  | 70 | 
CC(C)C[C@H](NC(=O)CNC(=O)[C@H](CCCCN)NC(=O)CN)C(=O)N1Cc2ccccc2C[C@H]1C(=O)N1CC2CCCCC2[C@H]1C(=O)N[C@@H](Cc1ccccc1)C(=O)N[C@@H](CCCCN)C(=O)N1Cc2ccccc2C[C@H]1C(=O)N1CC2CCCCC2[C@H]1C(=O)N[C@@H](CCCCN)C(=O)N[C@@H](Cc1ccccc1)C(=O)N1Cc2ccccc2C[C@H]1C(=O)N1CC2CCCCC2[C@H]1C(=O)N[C@@H](Cc1ccccc1)C(=O)N[C@@H](CCCCN)C(=O)N1Cc2ccccc2C[C@H]1C(=O)N1CC2CCCCC2[C@H]1C(=O)N[C@@H](CCCCN)C(=O)N[C@@H](Cc1ccccc1)C(=O)N1Cc2ccccc2C[C@H]1C(=O)N1CC2CCCCC2[C@H]1C(=O)N[C@@H](Cc1ccccc1)C(=O)N[C@@H](CCCCN)C(=O)N1Cc2ccccc2C[C@H]1C(=O)N1CC2CCCCC2[C@H]1C(=O)N[C@@H](Cc1ccccc1)C(=O)N[C@@H](CCCCN)C(=O)N[C@@H](CCCNC(=N)N)C(N)=O (some centres undefined) (H-GKGL[Tic][Pro(3ξ,4ξ-(CH2)4)]FK[Tic][Pro(3ξ,4ξ-(CH2)4)]KF[Tic][Pro(3ξ,4ξ-(CH2)4)]FK[Tic][Pro(3ξ,4ξ-(CH2)4)]KF[Tic][Pro(3ξ,4ξ-(CH2)4)]FK[Tic][Pro(3ξ,4ξ-(CH2)4)]FKR-NH2) |  |  | 100 | 
CSCC[C@H](NC(=O)[C@H](CC(C)C)NC(=O)[C@H](CCC(=O)O)NC(=O)[C@@H]1C[C@@H]2CCCC[C@@H]2N1C(=O)[C@@H]1Cc2ccccc2CN1C(=O)[C@H](Cc1ccccc1)NC(=O)CCNC(=O)[C@@H]1C[C@@H]2CCCC[C@@H]2N1C(=O)[C@@H]1Cc2ccccc2CN1C(=O)[C@H](CCCCN)NC(=O)CCNC(=O)[C@@H]1C[C@@H]2CCCC[C@@H]2N1C(=O)[C@@H]1Cc2ccccc2CN1C(=O)[C@H](Cc1ccccc1)NC(=O)CCNC(=O)[C@@H]1C[C@@H]2CCCC[C@@H]2N1C(=O)[C@@H]1Cc2ccccc2CN1C(=O)[C@H](CCCCN)NC(=O)CCNC(=O)[C@@H]1C[C@@H]2CCCC[C@@H]2N1C(=O)[C@@H]1Cc2ccccc2CN1C(=O)[C@H](CC(C)C)NC(=O)CNC(=O)[C@H](CCCCN)NC(=O)CN)C(=O)N[C@@H](CC(N)=O)C(=O)N[C@@H](CO)C(N)=O (H-GKGL[Tic][Oic][βAla]K[Tic][Oic][βAla]F[Tic][Oic][βAla]K[Tic][Oic][βAla]F[Tic][Oic]ELMNS-NH2) |  |  | 55 | 
CC(C)C[C@H](NC(=O)CNC(=O)[C@H](CCCCN)NC(=O)CN)C(=O)N1Cc2ccccc2C[C@H]1C(=O)N1CC2CCCCC2[C@H]1C(=O)NCC(=O)N[C@@H](CCCCN)C(=O)N1Cc2ccccc2C[C@H]1C(=O)N1CC2CCCCC2[C@H]1C(=O)NCC(=O)N[C@@H](CC(C)C)C(=O)N1Cc2ccccc2C[C@H]1C(=O)N1CC2CCCCC2[C@H]1C(=O)NCC(=O)N[C@@H](CCCCN)C(=O)N1Cc2ccccc2C[C@H]1C(=O)N1CC2CCCCC2[C@H]1C(=O)NCC(=O)N[C@@H](CC(C)C)C(=O)N1Cc2ccccc2C[C@H]1C(=O)N1CC2CCCCC2[C@H]1C(=O)NCC(=O)N[C@@H](CCCCN)C(=O)N1Cc2ccccc2C[C@H]1C(=O)N1CC2CCCCC2[C@H]1C(=O)NCC(=O)N[C@@H](CCCCN)C(=O)N[C@@H](CCCNC(=N)N)C(N)=O (some centres undefined) (H-GKGL[Tic][Pro(3ξ,4ξ-(CH2)4)]GK[Tic][Pro(3ξ,4ξ-(CH2)4)]GL[Tic][Pro(3ξ,4ξ-(CH2)4)]GK[Tic][Pro(3ξ,4ξ-(CH2)4)]GL[Tic][Pro(3ξ,4ξ-(CH2)4)]GK[Tic][Pro(3ξ,4ξ-(CH2)4)]GKR-NH2) |  |  | 100 | 
CC(C)C[C@H](NC(=O)[C@@H]1C2CCCCC2CN1C(=O)[C@@H]1Cc2ccccc2CN1C(=O)CNC(=O)[C@H](CCCCN)NC(=O)CNC(=O)[C@@H]1C2CCCCC2CN1C(=O)[C@@H]1Cc2ccccc2CN1C(=O)[C@H](CO)NC(=O)[C@H](CC(C)C)NC(=O)[C@@H](N)CCC(=O)O)C(=O)N[C@@H](CCCCN)C(=O)N[C@@H](CCC(=O)O)C(=O)N[C@@H](CO)C(N)=O (some centres undefined) (H-ELS[Tic][Pro(3ξ,4ξ-(CH2)4)]GKG[Tic][Pro(3ξ,4ξ-(CH2)4)]LKES-NH2) |  |  | 23 | 
CSCC[C@H](NC(=O)[C@H](CC(C)C)NC(=O)[C@H](CCC(=O)O)NC(=O)[C@@H]1c2ccccc2CN1C(=O)[C@@H]1Cc2ccccc2CN1C(=O)[C@H](Cc1ccccc1)NC(=O)CCNC(=O)[C@@H]1c2ccccc2CN1C(=O)[C@@H]1Cc2ccccc2CN1C(=O)[C@H](CCCCN)NC(=O)CCNC(=O)[C@@H]1c2ccccc2CN1C(=O)[C@@H]1Cc2ccccc2CN1C(=O)[C@H](Cc1ccccc1)NC(=O)CCNC(=O)[C@@H]1c2ccccc2CN1C(=O)[C@@H]1Cc2ccccc2CN1C(=O)[C@H](CCCCN)NC(=O)CCNC(=O)CCNC(=O)CNC(=O)[C@H](CC(C)C)NC(=O)CNC(=O)[C@H](CCCCN)NC(=O)CNC(=O)[C@@H](N)CCC(=O)O)C(=O)N[C@@H](CC(N)=O)C(=O)N[C@@H](CO)C(N)=O (H-EGKGLG[βAla][βAla]K[Tic][Pro(3,4-benzo)][βAla]F[Tic][Pro(3,4-benzo)][βAla]K[Tic][Pro(3,4-benzo)][βAla]F[Tic][Pro(3,4-benzo)]ELMNS-NH2) |  |  | 27 | 
CC(C)C[C@H](NC(=O)CNC(=O)[C@H](CCCCN)NC(=O)CN)C(=O)N1Cc2ccccc2C[C@H]1C(=O)N1CC2CCCCC2[C@H]1C(=O)NCC(=O)N[C@@H](CCCCN)C(=O)N1Cc2ccccc2C[C@H]1C(=O)N1CC2CCCCC2[C@H]1C(=O)NCC(=O)N[C@@H](Cc1ccccc1)C(=O)N1Cc2ccccc2C[C@H]1C(=O)N1CC2CCCCC2[C@H]1C(=O)NCC(=O)N[C@@H](CCCCN)C(=O)N1Cc2ccccc2C[C@H]1C(=O)N1CC2CCCCC2[C@H]1C(=O)NCC(=O)N[C@@H](Cc1ccccc1)C(=O)N1Cc2ccccc2C[C@H]1C(=O)N1CC2CCCCC2[C@H]1C(=O)NCC(=O)N[C@@H](CCCCN)C(=O)N1Cc2ccccc2C[C@H]1C(=O)N1CC2CCCCC2[C@H]1C(=O)NCC(=O)N[C@@H](CCCCN)C(=O)N[C@@H](CCCNC(=N)N)C(N)=O (some centres undefined) (H-GKGL[Tic][Pro(3ξ,4ξ-(CH2)4)]GK[Tic][Pro(3ξ,4ξ-(CH2)4)]GF[Tic][Pro(3ξ,4ξ-(CH2)4)]GK[Tic][Pro(3ξ,4ξ-(CH2)4)]GF[Tic][Pro(3ξ,4ξ-(CH2)4)]GK[Tic][Pro(3ξ,4ξ-(CH2)4)]GKR-NH2) |  |  | 33.4 | 
